The target of one experiment is T1, rat NaPi-2b (Rattus norvegicus, UniProt Q9JJ09).
T1 construct: expressed in transfected cells; host or cells: Xenopus oocytes injected with cRNA
T1 sequence (Q9JJ09 1-695): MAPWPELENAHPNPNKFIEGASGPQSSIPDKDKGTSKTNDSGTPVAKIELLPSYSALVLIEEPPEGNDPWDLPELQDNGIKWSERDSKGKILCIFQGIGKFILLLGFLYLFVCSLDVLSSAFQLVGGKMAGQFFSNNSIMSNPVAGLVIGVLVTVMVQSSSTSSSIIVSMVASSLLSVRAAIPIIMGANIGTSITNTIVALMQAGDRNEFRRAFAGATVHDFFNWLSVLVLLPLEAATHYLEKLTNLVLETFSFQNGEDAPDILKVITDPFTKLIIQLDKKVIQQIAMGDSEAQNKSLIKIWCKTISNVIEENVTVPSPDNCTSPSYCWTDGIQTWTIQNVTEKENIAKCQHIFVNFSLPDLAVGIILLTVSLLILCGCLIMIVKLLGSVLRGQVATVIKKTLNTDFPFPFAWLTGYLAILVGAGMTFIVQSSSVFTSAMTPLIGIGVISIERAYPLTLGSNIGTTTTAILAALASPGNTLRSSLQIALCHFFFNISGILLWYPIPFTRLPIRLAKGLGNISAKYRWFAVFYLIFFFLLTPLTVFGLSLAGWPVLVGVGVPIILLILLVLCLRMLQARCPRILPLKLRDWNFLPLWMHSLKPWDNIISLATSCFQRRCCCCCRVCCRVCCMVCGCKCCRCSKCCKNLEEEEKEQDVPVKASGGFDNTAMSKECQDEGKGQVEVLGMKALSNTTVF
The experiment is described as follows: Sodium-dependent phosphate uptake of Xenopus oocytes which expressed NaPi-2b (32P). The format is cell-based. Particulars: Xenopus oocytes expressing rat NaPi-2b, 32P radioactive phosphorus; read-out: IC50 (phosphate uptake inhibitory activity). Put shortly: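 Rat NaPi-2b cloned from small-intestine cDNA; cRNA injected into Xenopus oocytes, expression for 2 days. Phosphate uptake inhibition measured with 32P; percent inhibition at 300 μM and 100 μM read from the same inhibition curve.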

The target of a further experiment is T2, human NaPi-2a (Homo sapiens, UniProt Q06495).
T2 construct: expressed in transfected cells
T2 sequence (Q06495 1-639): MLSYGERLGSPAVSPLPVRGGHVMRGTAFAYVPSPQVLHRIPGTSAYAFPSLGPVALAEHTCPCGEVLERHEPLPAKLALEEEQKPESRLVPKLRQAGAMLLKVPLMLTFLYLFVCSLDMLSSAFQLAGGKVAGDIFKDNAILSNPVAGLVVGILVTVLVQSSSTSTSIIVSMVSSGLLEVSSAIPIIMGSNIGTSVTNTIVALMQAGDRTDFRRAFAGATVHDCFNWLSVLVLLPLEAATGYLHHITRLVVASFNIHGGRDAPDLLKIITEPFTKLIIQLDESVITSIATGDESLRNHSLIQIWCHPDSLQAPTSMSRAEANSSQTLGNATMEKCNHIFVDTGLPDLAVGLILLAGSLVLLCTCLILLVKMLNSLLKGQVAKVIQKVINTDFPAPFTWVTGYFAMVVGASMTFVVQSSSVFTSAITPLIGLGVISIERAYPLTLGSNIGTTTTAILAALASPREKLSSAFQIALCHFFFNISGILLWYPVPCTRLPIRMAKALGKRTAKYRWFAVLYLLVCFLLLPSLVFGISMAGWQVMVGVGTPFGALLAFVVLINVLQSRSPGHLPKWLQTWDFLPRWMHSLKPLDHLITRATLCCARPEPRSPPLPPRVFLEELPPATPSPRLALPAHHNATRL
The experiment is described as follows: Sodium-dependent phosphate uptake of Xenopus oocytes which expressed NaPi-2a (32P). Format: cell-based. Conditions: phosphate uptake, Xenopus oocytes expressing human NaPi-2a; five concentration levels. The text has this:
Experiment of Sodium-Dependent Phosphate Uptake of Xenopus oocytes which Expressed NaPi-2a
In the test, a group with the addition of choline chloride (Choline Cl) was used as a negative control for nonspecific uptake, and PFA (phosphonoformic acid) was used as a positive control for phosphate transport inhibition.

Molecules are shown by their SMILES. Some results are limits rather than exact numbers.

The term IC50 denotes the concentration at which inhibition is half-maximal. For the compound `COc1ccc(/C=N/NC(=O)c2cc(N3CCCCC3)ccc2NC(=O)c2cccc(CSCCC(=O)O)c2)cc1` [Compound 890, 3-{3-[2-(4-Methoxy-benzylidene-hydrazinocarbonyl)-4-piperidin-1-yl-phenylcarbamoyl]-benzylsulfanyl}-propionic acid], the figures for the concentration for half-maximal inhibition (IC50) on rat NaPi-2b and against human NaPi-2a were 3.91 µM and 1.33 µM, respectively.
For `O=C(O)CSCc1cccc(C(=O)Nc2ccc(N3CCCCC3)cc2C(=O)N/N=C/c2ccc(Cl)c(C(F)(F)F)c2)c1` [Compound 891, {3-[2-(4-Chloro-3-trifluoromethyl-benzylidene-hydrazinocarbonyl)-4-piperidin-1-yl-phenylcarbamoyl]-benzylsulfanyl}-acetic acid], in that order: 1.47 µM and 13.9 µM.
For `Cc1ccc(/C=N/NC(=O)c2cc(N3CCCCC3)ccc2NC(=O)c2cccc(CN3CCc4nc5ncccc5cc4C3)c2)cc1C` [Compound 893, 3-(7,8-Dihydro-5H-1,6,9-triaza-anthracen-6-ylmethyl)-N-[2-(3,4-dimethyl-benzylidene-hydrazinocarbonyl)-4-piperidin-1-yl-phenyl]-benzamide], in that order: under 0.3 µM and 5.11 µM.
For `Cc1ccc(/C=N/NC(=O)c2cc(N3CCCCC3)ccc2NC(=O)c2cccc(CN3CCc4nc5ncccc5cc4C3)c2)cc1` [Compound 894, 3-(7,8-Dihydro-5H-1,6,9-triaza-anthracen-6-ylmethyl)-N-[2-(4-methyl-benzylidene-hydrazinocarbonyl)-4-piperidin-1-yl-phenyl]-benzamide], in that order: 0.5 µM and 3.61 µM.
In the case of `O=C(Nc1ccc(N2CCCCC2)cc1C(=O)N/N=C/c1ccc(F)cc1)c1cccc(CN2CCc3nc4ncccc4cc3C2)c1` [Compound 895, 3-(7,8-Dihydro-5H-1,6,9-triaza-anthracen-6-ylmethyl)-N-[2-(4-fluoro-benzylidene-hydrazinocarbonyl)-4-piperidin-1-yl-phenyl]-benzamide], the 50% inhibitory concentration (IC50) at rat NaPi-2b is under 0.3 µM; against human NaPi-2a, 5.52 µM.
Regarding `O=C(Nc1ccc(N2CCCCC2)cc1C(=O)N/N=C/c1cccc(F)c1)c1cccc(CN2CCc3nc4ncccc4cc3C2)c1` [Compound 896, 3-(7,8-Dihydro-5H-1,6,9-triaza-anthracen-6-ylmethyl)-N-[2-(3-fluoro-benzylidene-hydrazinocarbonyl)-4-piperidin-1-yl-phenyl]-benzamide], the IC50 is under 0.3 µM on rat NaPi-2b and 7.4 µM on human NaPi-2a.
On the same counts, the results for `Cc1ccc(/C=N/NC(=O)c2cc(N3CCCCC3)ccc2NC(=O)c2cccc(CSCC(O)CO)c2)cc1C` (centres unmarked) [Compound 899, 3-(2,3-Dihydroxy-propylsulfanylmethyl)-N-[2-(3,4-dimethyl-benzylidene-hydrazinocarbonyl)-4-piperidin-1-yl-phenyl]-benzamide] are under 1 µM and under 1 µM.
In the case of `Cc1ccc(/C=N/NC(=O)c2cc(N3CCCCC3)ccc2NC(=O)c2cccc(CSCC(O)CO)c2)cc1` (centres unmarked) [Compound 900, 3-(2,3-Dihydroxy-propylsulfanylmethyl)-N-[2-(4-methyl-benzylidene-hydrazinocarbonyl)-4-piperidin-1-yl-phenyl]-benzamide], the half-inhibitory concentration (IC50) is under 1 µM at rat NaPi-2b and 2.53 µM at human NaPi-2a.
On to `O=C(Nc1ccc(N2CCCCC2)cc1C(=O)N/N=C/c1ccc(F)cc1)c1cccc(CSCC(O)CO)c1` (centres unmarked) [Compound 901, 3-(2,3-Dihydroxy-propylsulfanylmethyl)-N-[2-(4-fluoro-benzylidene-hydrazinocarbonyl)-4-piperidin-1-yl-phenyl]-benzamide], for which the IC50 at rat NaPi-2b and against human NaPi-2a was under 1 µM each time.
For the compound `O=C(Nc1ccc(N2CCCCC2)cc1C(=O)N/N=C/c1cccc(F)c1)c1cccc(CSCC(O)CO)c1` (centres unmarked) [Compound 902, 3-(2,3-Dihydroxy-propylsulfanylmethyl)-N-[2-(3-fluoro-benzylidene-hydrazinocarbonyl)-4-piperidin-1-yl-phenyl]-benzamide], the IC50 at rat NaPi-2b and against human NaPi-2a was under 1 µM in each case.
`O=C(Nc1ccc(N2CCCCC2)cc1C(=O)N/N=C/c1ccc(Cl)c(C(F)(F)F)c1)c1cccc(CSCC(O)CO)c1` (centres unmarked) [Compound 903, N-[2-(4-Chloro-3-trifluoromethyl-benzylidene-hydrazinocarbonyl)-4-piperidin-1-yl-phenyl]-3-(2,3-dihydroxy-propyl-sulfanylmethyl)-benzamide]: the concentration for half-maximal inhibition (IC50) on rat NaPi-2b and against human NaPi-2a was under 1 µM in each case.
As for `COc1ccc(/C=N/NC(=O)c2cc(N3CCCCC3)ccc2NC(=O)c2cccc(CSCC(O)CO)c2)cc1` (centres unmarked) [Compound 904, 3-(2,3-Dihydroxy-propylsulfanylmethyl)-N-[2-(4-methoxy-benzylidene-hydrazinocarbonyl)-4-piperidin-1-yl-phenyl]-benzamide], the half-maximal inhibitory concentration (IC50) amounted to 1.71 µM at rat NaPi-2b and 1.69 µM against human NaPi-2a.
As for `O=C(Nc1ccc(N2CCCCC2)cc1C(=O)N/N=C/c1ccc(Cl)c(C(F)(F)F)c1)c1cccc(CNCCN(CCO)CCO)c1` [Compound 914, 3-({2-[Bis-(2-hydroxy-ethyl)-amino]-ethylamino}-methyl)-N-[2-(4-chloro-3-trifluoromethyl-benzylidene-hydrazinocarbonyl)-4-piperidin-1-yl-phenyl]-benzamide], the half-maximal inhibitory concentration (IC50) on rat NaPi-2b came out at 1.75 µM; at human NaPi-2a, 3.13 µM.
As to `COc1ccc(C(=O)Nc2ccc(N3CCCCC3)cc2C(=O)N/N=C/c2ccc(C)c(C)c2)cc1OC` [Compound 935, N-[2-(3,4-Dimethyl-benzylidene-hydrazinocarbonyl)-4-piperidin-1-yl-phenyl]-3,4-dimethoxy-benzamide], the IC50 at rat NaPi-2b was 0.17 µM; against human NaPi-2a it was 9.68 µM.
Regarding `COc1ccc(C(=O)Nc2ccc(N3CCCCC3)cc2C(=O)N/N=C/c2cccnc2)cc1OC` [Compound 936, 3,4-Dimethoxy-N-[4-piperidin-1-yl-2-(pyridin-3-ylmethylene-hydrazinocarbonyl)-phenyl]-benzamide], the IC50 at rat NaPi-2b is 5.59 µM; at human NaPi-2a, 30 µM.
On the same counts, the results for `Cc1ccc(/C=N/NC(=O)c2cc(F)ccc2NC(=O)c2cccc(CN(CC(C)O)CC(C)O)c2)cc1C` (centres unmarked) [Compound 985, 3-{[Bis-(2-hydroxy-propyl)-amino]-methyl}-N-[2-(3,4-dimethyl-benzylidene-hydrazinocarbonyl)-4-fluoro-phenyl]-benzamide] are under 3 µM and under 3 µM.
For `CC(O)CN(Cc1cccc(C(=O)Nc2ccc(F)cc2C(=O)N/N=C/c2cccc(F)c2)c1)CC(C)O` (centres unmarked) [Compound 987, 3-{[Bis-(2-hydroxy-propyl)-amino]-methyl}-N-[4-fluoro-2-(3-fluoro-benzylidene-hydrazinocarbonyl)-phenyl]-benzamide], in that order: under 3 µM and 16.3 µM.
On the same counts, the results for `Cc1ccc(/C=N/NC(=O)c2cc(F)ccc2NC(=O)c2cccc(CN(CC(C)O)CC(C)O)c2)cc1` (centres unmarked) [Compound 989, 3-{[Bis-(2-hydroxy-propyl)-amino]-methyl}-N-[4-fluoro-2-(4-methyl-benzylidene-hydrazinocarbonyl)-phenyl]-benzamide] are under 3 µM and 7.84 µM.
Consider `COc1ccc(/C=N/NC(=O)c2cc(F)ccc2NC(=O)c2cccc(CN(CC(C)O)CC(C)O)c2)cc1` (centres unmarked) [Compound 990, 3-{[Bis-(2-hydroxy-propyl)-amino]-methyl}-N-[4-fluoro-2-(4-methoxy-benzylidene-hydrazinocarbonyl)-phenyl]-benzamide], for which the results for the half-inhibitory concentration (IC50) at rat NaPi-2b and on human NaPi-2a were under 3 µM and 7.14 µM, respectively.

(Values after patent publication US8134015B2, “Compound inhibiting in vivo phosphorous transport and medicine containing the same” (Kyowa Hakko Kirin Co., Ltd., priority 2003, dated 2012).)
